Article PMC11506924, “Triterpenoid Saponins and Flavonoid Glycosides from the Flower of Camellia flavida and Their Cytotoxic and α-Glycosidase Inhibitory Activities” (International Journal of Molecular Sciences, 2024)

Experiments:
A549 = experiment: MTT cytotoxicity assay, A549; format: cell-based; conditions: Homo sapiens, 24 h exposure, ± SD, n = 8
Description: (§1) The human cervical cancer cell line Hela, the human lung adenocarcinoma cell line A549, the human breast cancer cell lines MCF-7 and MDA-MB-231, the human hepatoma cell lines BEL-7402 and Hep G2, the human embryonic lung fibroblast cell line MRC-5, and the human nasal epithelial cell line HNEpC were all sourced from the China Center for Type Culture Collection (CCTCC, Wuhan University, Hubei, China). Hela, A549, MCF-7, MDA-MB-231, BEL-7402, MRC-5, and Hep G2 cells were maintained in DMEM media, while HNEpC cells were cultured in RPMI 1640. All media were supplemented with 10% FBS (v/v) and 1% penicillin-streptomycin, and cells were grown in a humidified atmosphere containing 5% CO2 at 37 °C.
(§2) The MTT assay was conducted to assess cell viability, as previously described. Cells were seeded onto 96-well plates at a density of 1 × 10^4 cells per well, with each experiment replicated eight times to ensure reproducibility. […] Subsequently, 10 μL MTT reagent was added to each well, and the plates were incubated for a further 4 h at 37 °C, adhering strictly to the manufacturer’s instructions. The optical density (OD) values were then measured at 570 nm using a microplate reader. The cell survival rate for each compound was calculated employing the following formula: OD value of the experimental group−OD value of the blank group/OD value of the control group−OD value of Blank group×100%
(§3) Statistical analysis data from the cytotoxicity and α-glycosidase inhibitory assays were analyzed using the mean and standard deviation. The 50% cytotoxic and inhibitory concentrations were calculated and compared to the control via non-linear regression. These analyses were performed using SPSS® Statistics (Version 18.0, IBM Software, Armonk, NY, USA).

[1] = MTT cytotoxicity assay, HNEpC (normal cells); format: cell-based; conditions: HNEpC cells (normal nasal epithelial cells), normal human nasal epithelial cells, 24 h exposure, n = 8
Description: as §1
(§4) The MTT assay was conducted to assess cell viability, as previously described. Cells were seeded onto 96-well plates at a density of 1 × 10^4 cells per well, with each experiment replicated eight times to ensure reproducibility. Following incubation at 37 °C for 24 h, cells were exposed to various concentrations (0.25, 0.5, 1.0, 2.0, 4.0, 8.0, 16.0, 32.0 µM) of compounds 1–10 for 24 h. Subsequently, 10 μL MTT reagent was added to each well, and the plates were incubated for a further 4 h at 37 °C, adhering strictly to the manufacturer’s instructions. The optical density (OD) values were then measured at 570 nm using a microplate reader. The cell survival rate for each compound was calculated employing the following formula: OD value of the experimental group−OD value of the blank group/OD value of the control group−OD value of Blank group×100%
as §3

MCF-7 = experiment: MTT cytotoxicity assay, MCF-7; format: cell-based; conditions: Homo sapiens, MCF7, 24 h exposure, ± SD, n = 8
Description: as §1, §4, §3

MDA-MB-231 = experiment: MTT cytotoxicity assay, MDA-MB-231; format: cell-based, human; conditions: for IC50: Homo sapiens, MDA-MB-231, MTT, 24 h exposure, ± SD, n = 8
Description: as §1, §2, §3

BEL-7402 = experiment: MTT cytotoxicity assay, BEL-7402; format: cell-based; conditions: Homo sapiens, 24 h exposure, ± SD, n = 8
Description: as §1, §2, §3

[2] = MTT cytotoxicity assay, MRC-5 (normal cells); format: cell-based; conditions: MRC-5 cells (normal embryonic lung fibroblasts), normal human embryonic lung fibroblast, 24 h exposure, n = 8
Description: as §1, §4, §3

Hep G2 = experiment: MTT cytotoxicity assay, Hep G2; format: cell-based; conditions: Homo sapiens, HepG2, 24 h exposure, ± SD, n = 8
Description: as §1, §2, §3

Hela = experiment: MTT cytotoxicity assay, Hela; format: cell-based; conditions: Homo sapiens, 24 h exposure, ± SD, n = 8
Description: as §1, §2, §3

| SMILES | IC50 (A549) [µM] | IC50 at 24 h [1] [µM] | IC50 (MCF-7) [µM] | IC50 (MDA-MB-231) [µM] | IC50 (BEL-7402) [µM] | IC50 at 24 h [2] [µM] | IC50 (Hep G2) [µM] | IC50 (Hela) [µM] | inhibitory effect on MDA-MB-231 cells (in words) (MDA-MB-231; compared with positive control) |
| --- | --- | --- | --- | --- | --- | --- | --- | --- | --- |
| COC(=O)C1OC(OC2CCC3(C)C(CCC4(C)C3CC=C3C5CC(C)(C)CCC5(CO)C(O)C(O)C34C)C2(C)C)C(OC2OC(CO)C(O)C(O)C2O)C(OC2OC(CO)C(O)C(O)C2OC2OC(C)C(O)C(O)C2O)C1O [Compound 1, 3β,15α,16α,28-tetrahydroxyolean-12-en-3-O-β-D-glucopyranosyl-(1→2)-[α-L-rhamnopyranosyl-(1→2)-β-D-galactopyranosyl-(1→3)]-β-D-glucuronopyranoside methyl ester] | > 30 | > 30 | 9.06 ± 0.45 | > 30 | 7.62 ± 1.06 | > 30 | 25.6 ± 3.46 | 15.1 ± 1.06 |  |
| CC1OC(OC2C(OC3C(O)C(C(=O)O)OC(OC4CCC5(C)C(CCC6(C)C5CC=C5C7CC(C)(C)CCC7(CO)C(O)C(O)C56C)C4(C)C)C3OC3OC(CO)C(O)C(O)C3O)OC(CO)C(O)C2O)C(O)C(O)C1O [Compound 2, 3β,15α,16α,28-tetrahydroxyolean-12-en-3-O-β-D-glucopyranosyl-(1→2)-[α-L-rhamnopyranosyl-(1→2)-β-D-galactopyranosyl-(1→3)]-β-D-glucuronopyranoside] | > 30 | > 30 | 19.2 ± 3.71 | 26.5 ± 3.07 | > 30 | > 30 | 14 ± 3.29 | 4.17 ± 0.85 |  |
| CC1OC(OC2C(OC3C(O)C(C(=O)O)OC(OC4CCC5(C)C(CCC6(C)C5CC=C5C7CC(C)(C)CCC7(CO)C(=O)C(O)C56C)C4(C)C)C3OC3OC(CO)C(O)C(O)C3O)OC(CO)C(O)C2O)C(O)C(O)C1O [Compound 3, 3β,15α,28-trihydroxyolean-12-en-16-on-3-O-β-D-glucopyranosyl-(1→2)-[α-L-rhamnopyranosyl-(1→2)-β-D-galactopyranosyl-(1→3)]-β-D-glucuronopyranoside] | 23.4 ± 7.26 | > 30 | 1.65 ± 0.39 | 10.1 ± 2.28 | 4.94 ± 0.41 | > 30 | 8.77 ± 1.56 | > 30 | comparable to that of cisplatin |
| CC1OC(OC2C(OC3C(OC4C(=O)c5c(O)cc(O)cc5OC4c4ccc(O)cc4)OC(C)C(O)C3O)OC(CO)C(O)C2O)C(O)C(O)C1O [Compound 4, (2R,3R)-3,5,7,4′-tetrahydroxyflavanone-3-O-α-L-rhamnopyranosyl-(1→2)-β-D-glucopyranosyl-(1→2)-α-L-rhamnoside] | > 30 | > 30 | > 30 | > 30 | > 30 | > 30 | > 30 | > 30 |  |
| CC(=O)OC1C(O)C(C)OC(OC2C(OC3C(OC4C(=O)c5c(O)cc(O)cc5OC4c4ccc(O)cc4)OC(C)C(O)C3O)OC(CO)C(O)C2O)C1O [Compound 5, (2R,3S)-3,5,7,4′-tetrahydroxyflavanone-3-O-[3-acetyl-O-α-L-rhamnopyranosyl-(1→2)-β-D-glucopyranosyl-(1→2)]-α-L-rhamnoside] | > 30 | > 30 | > 30 | > 30 | > 30 | > 30 | 20.8 ± 3.79 | > 30 |  |
| CC(=O)OC1C(C)OC(OC2C(OC3C(OC4C(=O)c5c(O)cc(O)cc5OC4c4ccc(O)cc4)OC(C)C(O)C3O)OC(CO)C(O)C2O)C(O)C1O [Compound 6, (2R,3R)-3,5,7,4′-tetrahydroxyflavanone-3-O-[4-acetyl-O-α-L-rhamnopyranosyl-(1→2)-β-D-glucopyranosyl-(1→2)]-α-L-rhamnoside] | > 30 | > 30 | > 30 | > 30 | 11.4 ± 3.11 | > 30 | > 30 | > 30 |  |
| C[C@@H]1O[C@@H](OC[C@H]2O[C@@H](Oc3c(-c4ccc(O)c(O)c4)oc4cc(O)cc(O)c4c3=O)[C@H](OC(=O)/C=C/c3ccc(O)cc3)[C@@H](O[C@@H]3OC[C@H](O)[C@H](O)[C@H]3O)[C@@H]2O)[C@H](O)[C@H](O[C@@H]2OC[C@@H](O)[C@H](O)[C@H]2O)[C@H]1O [Compound 7, 3,5,7,3′,4′-pentahydroxyflavonol-3-O-α-L-arabinopyranosyl-(1→3)-[β-D-xylopyranosyl-(1→3)-α-L-rhamnopyranosyl-(1→6)]-2-O-p-E-coumaryl-β-D-glucopyranoside] | > 30 | > 30 | > 30 | > 30 | > 30 | > 30 | > 30 | > 30 |  |
| COc1cccc2c1C(=O)c1c(O)c3c(c(O)c1C2=O)C[C@@](O)(C(=O)CO)C[C@@H]3O[C@H]1C[C@H](N)[C@H](O)[C@H](C)O1 [doxorubicin, reference compound] |  |  | 3.79 ± 0.26 |  |  |  |  |  |  |
